{"source": "patent US7354611B1", "about": "“Fecundity-promoting supplement for the insidious flower bug reared on artificial diet” (The United States of America as represented by the …, priority 2003, dated 2008)", "system": "Orius insidiosus", "assay": "Orius insidiosus fecundity (oviposition) bioassay: adults fed artificial diet with or without supplement, cumulative eggs laid/female counted on green bean", "type": "in vivo", "conditions": "Test 2", "description": "Newly emerged adults of Orius insidiosus (<24 hour eclosion) were obtained from a commercial producer of beneficial insects (Entomos, Gainesville, Fla.). The insects were placed on the experimental diets on the third day after eclosion. Each diet treatment consisted of six females and four males in a 100-ml plant tissue culture jar (Sigma, St. Louis, Mo.) with four jars per treatment. Each jar contained one paraffin-encapsulated water dome (50 μl), two artificial diet domes (50 μl), one 7-cm section of green bean pod for oviposition, and three crumpled strips of wax paper (5 mm×80 mm) as substrates for the insects to crawl on. Artificial diet jars contained only artificial diet. Experimental diet jars contained artificial diet plus a supplement. Plodia egg (standard) jars each contained approximately 75 Ploida interpunctella eggs (approximately 3 mg) in place of diet. Although eggs from Euphestia kuehniella are generally used by commercial producers, eggs from P. interpunctella were used because O. insidiosus feeds readily on their eggs. Green beans were removed every other day and examined under a microscope to count eggs and then replaced with a fresh green bean section and mortality was also recorded within each jar. Plodia eggs and domes of water and diet were replaced on the same days that the green beans were removed for counting eggs. The insects were held in a growth chamber at about 25.50±1° C., with approximately 75±5% relative humidity, and a photoperiod of 15:9 (light:dark) hours. The experiments were carried out until the females in all treatments ceased oviposition, approximately 28 days. Diets were prepared under aseptic conditions in a clean room and encapsulated in Parafilm using a diet encapsulation apparatus as described in Ferkovich et al. (BioControl, Volume 45, 401-413, 2000).\nThe artificial diet was developed for rearing Orius sauteri (Weiru and Ren, 1989, supra), and consisted of approximately 4.0 grams brewers yeast, 0.4 grams sucrose, 2.1 grams soy protein acid hydrolysate, 0.046 grams of 99% palmitic acid (all from Sigma, St. Louis, Mo.), 0.5 grams chicken egg yolk, and 1.0 gram honey in 12 ml distilled water. Palmitic acid was mixed with the egg yolk component before adding it to the diet.\nTwo tests were conducted. In the first test, artificial diet was compared with the experimental diets which were composed of artificial diet supplemented with homogenized Plodia eggs, and protein and lipid extracts from Plodia eggs as described above. Each experimental diet was compared against the control artificial diet in an independent experiment on different dates. In the second test, any of the statistically significant experimental diets from the first test were then simultaneously compared with the experimental diets containing non-insect supplements.\nEach treatment in both tests was replicated four times with 6 females and 4 males/replication. The cumulative number of eggs laid/female on artificial diet and on experimental diet were calculated relative to the percent eggs laid/female on Plodia eggs (standard); thus, mean ±S.E.=[#eggs laid per female on either artificial diet or experimental diet divided by # eggs laid per female on Plodia eggs]×100, n=4. The egg counts were adjusted for mortality. The egg counts per female were calculated for each replication. Data was analyzed by ANOVA using StatMost Software (Dataxiom Software Inc.). […]", "key": {"[1]": {"conditions": "Bovine Serum Albumin 83.3 mg/ml diet"}, "[2]": {"conditions": "Bovine Serum Albumin 166.7 mg/ml diet"}}, "data": [{"substance": "Bovine Serum Albumin: Bovine Serum albumin, Fraction V powder, Sigma", "values": [{"measurement": "% of Plodia egg Standard ± SE", "setting": "[1]", "result": "51.3 ± 4.1", "unit": "%"}, {"measurement": "Mean no. eggs/female ± SE", "setting": "[1]", "result": "19.7 ± 1.6", "unit": "eggs/female"}, {"measurement": "% of Plodia egg Standard ± SE", "setting": "[2]", "result": "64.9 ± 4.2", "unit": "%"}, {"measurement": "Mean no. eggs/female ± SE", "setting": "[2]", "result": "24.9 ± 1.6", "unit": "eggs/female"}, {"measurement": "effect on cumulative mean number of egg oviposited/female", "setting": "versus artificial diet (Table 2)", "result": "significantly increased"}]}]}
